Data on 32 compounds can be found in patent US9776967B2, “Carboxamide derivatives as pesticidal compounds” (priority 2013, dated 2017).

Each structure is given as a SMILES string. Where two headings read alike, the source gives them in different places. Some results are limits rather than exact numbers.

One series deals with Haemonchus contortus. Kind of series: In vitro assay with Haemonchus contortus (HAEMCO), larval mortality. Conditions: 120 h; for Emax at 0.8 ppm / Emax at 4 ppm / Emax at 20 ppm: HAEMCO, 5dat, comparative example, read-out: % Efficacy; for mortality at 20 ppm: read-out: activity (larval mortality). How it is done:
In Vitro Assay with Haemonchus contortus (HAEMCO)
(§1) Solvent: Dimethyl Sulfoxide
(§2) To produce a suitable preparation of active compound, 10 mg of active compound are dissolved in 0.5 ml solvent, and the concentrate is diluted with “Ringer's solution” to the desired concentration.
Approximately 40 larvae of the red stomach worm (Haemonchus contortus) are transferred into a test tube containing compound solution.
After 5 days percentage of larval mortality are recorded. 100% efficacy means all larvae are killed, 0% efficacy means no larvae are killed.

The next series relates to Cooperia curticei. In words: In vitro assay with Cooperia curticei (COOPCU), larval mortality. As to conditions: 120 h, read-out: activity (larval mortality). How it is done: In Vitro Assay with Cooperia curticei (COOPCU)
as §1, §2
Approximately 40 nematode larvae (Cooperia curticei) are transferred into a test tube containing the compound solution.
After 5 days percentage of larval mortality is recorded. 100% efficacy means all larvae are killed; 0% efficacy means no larvae are killed.

In series [1] the test system is Nippostrongylus brasiliensis. In words: In vitro assay with Nippostrongylus brasiliensis (NIPOBR), acetylcholine esterase readout. As to conditions: adult worms, read-out: activity (reduction of AChE compared to negative control); for inhibition at 1 ppm: 1 ppm (1 μg/ml); for inhibition at 10 ppm: 10 ppm (10 μg/ml). How it is done:
In Vitro Assay with Nippostrongylus brasiliensis (NIPOBR)
Adult Nippostrongylus brasiliensis were washed with saline buffer containing 100 U/ml penicillin, 0.1 mg/ml streptomycin and 2.5 μg/ml amphotericin B. Test compounds were dissolved in DMSO and worms were incubated in medium in a final concentration of 10 μg/ml (10 ppm) respectively 1 μg/ml (1 ppm). An aliquot of the medium was used to determine the acetylcholine esterase activity in comparison to a negative control. The principle of measuring acetylcholine esterase as readout for anthelmintic activity was described in Rapson et al (1986) and Rapson et al (1987).

Series [2] can be described thus: LogP by HPLC on reversed phase columns (EEC directive 79/831 Annex V.A8). The class given is physicochemical. How it is done:
Calibration was done with straight-chain alkan2-ones (with 3 to 16 carbon atoms) with known Log P values (measurement of Log P values using retention times with linear interpolation between successive alkanones). Lambda-max-values were determined using UV-spectra from 200 nm to 400 nm and the peak values of the chromatographic signals.

The test system of the next series is Meloidogyne incognita. In words: Meloidogyne incognita (MELGIN) assay, gall formation on salad seedlings. The class given is in vivo. Conditions: 336 h, after 14 days, read-out: nematicidal activity (percentage of gall formation; 100% = no galls). How it is done: Meloidogyne incognita (MELGIN) Assay
Solvent: 125.0 parts by weight of acetone
To produce a suitable preparation of active compound, 1 part by weight of active compound is mixed with the stated amount of solvent, and the concentrate is diluted with water to the desired concentration.
Vessels are filled with sand, a solution of the active ingredient, a suspension containing eggs and larvae of the southern root-knot nematode (Meloidogyne incognita) and salad seeds. The salad seeds germinate and the seedlings grow. Galls develop in the roots.
After 14 days the nematicidal activity is determined on the basis of the percentage of gall formation. 100% means no galls were found and 0% means the number of galls found on the roots of the treated plants was equal to that in untreated control plants.

Setting [3] is: LC-UV, acidic range, 0.1% formic acid in water and acetonitrile, read-out: logP (HCOOH) [a].
The mark [4] stands for this setting: reversed-phase HPLC column, LC-UV, acidic range, 0.1% formic acid in water and acetonitrile, read-out: logP (HCOOH) [a].

Regarding `O=C(NCCc1ccc(-c2ccc(OC(F)(F)F)cc2)cc1)c1ccccc1C(F)(F)F` [Ex.-No. 1-49, reference compound], in the series with Haemonchus contortus, the Emax at 0.8 ppm was 60% and the Emax at 4 ppm turned out to be 60%. The Emax at 20 ppm in the series with Haemonchus contortus (20 ppm) was determined as 80%.

As for `O=C(NCCc1ncc(-c2ccc(Cl)cc2)cc1Cl)c1ccccc1C(F)(F)F` [Example 1, N-{2-[3-chloro-5-(4-chlorophenyl)pyridin-2-yl]ethyl}-2-(trifluoromethyl)benzamide], in the series on Cooperia curticei, the mortality (as a rule, the percentage killed) at 20 ppm amounted to 100%. In series [1], the inhibition at 1 ppm was ≥ 60% and the inhibition at 10 ppm is ≥ 60%. Also, the chromatographic logP in series [2] (setting [3]) is 3.97. The pest or weed control at 20 ppm in the series with Meloidogyne incognita is 100%. In addition, the mortality at 20 ppm in the series with Haemonchus contortus (20 ppm, after 5 days) is 100%. For the same compound, in the series with Haemonchus contortus, the Emax at 0.8 ppm stood at 100% and the Emax at 4 ppm is 100%. Moreover, the Emax at 20 ppm with Haemonchus contortus (20 ppm) is 100%.

As for `O=C(NCC(F)(F)c1ncc(-c2ccc(Cl)cc2)cc1Cl)c1ccccc1C(F)(F)F` [Example 2, N-{2-[3-chloro-5-(4-chlorophenyl)pyridin-2-yl]-2,2-difluoroethyl}-2-(trifluoromethyl)-benzamide], the mortality at 20 ppm with Cooperia curticei was 100%; with Haemonchus contortus (20 ppm, after 5 days), 100%. For the same compound, in series [1], the inhibition at 1 ppm is ≥ 60%. The chromatographic logP in series [2] (setting [3]) worked out at 4.17.

For the compound `O=C(NCC(F)(F)c1ncc(-c2cccc(Cl)c2)cc1Cl)c1ccccc1C(F)(F)F` [Example 3], the mortality at 20 ppm in the series with Cooperia curticei and in the series on Haemonchus contortus was 100% throughout. The inhibition at 1 ppm in series [1] is ≥ 60%. Moreover, the inhibition at 10 ppm in series [1] is ≥ 60%. Also, the chromatographic logP in series [2] (logP (HCOOH) [a]) was determined as 4.17.

On to `O=C(NCC(F)(F)c1ncc(-c2ccc(OC(F)F)cc2)cc1Cl)c1ccccc1C(F)(F)F` [Example 4], for which the mortality at 20 ppm in the series with Cooperia curticei was 100%. In series [1], the inhibition at 1 ppm was ≥ 60% and the inhibition at 10 ppm was ≥ 60%. In series [2] (logP (HCOOH) [a]), this compound displayed a chromatographic logP of 3.78. In addition, the pest or weed control at 20 ppm with Meloidogyne incognita worked out at 100%. Also, the mortality at 20 ppm in the series with Haemonchus contortus was 100%.

As to `COc1ccc(-c2cnc(C(F)(F)CNC(=O)c3ccccc3C(F)(F)F)c(Cl)c2)cc1Cl` [Example 6], the mortality at 20 ppm was 100% in the series with Cooperia curticei and 100% with Haemonchus contortus (20 ppm, after 5 days). Moreover, the chromatographic logP in series [2] (setting [3]) came to 3.94. Also, the pest or weed control at 20 ppm with Meloidogyne incognita came out at 90%.

`Cc1ccccc1-c1cnc(C(F)(F)CNC(=O)c2ccccc2C(F)(F)F)c(Cl)c1` [Example 9]: the mortality at 20 ppm in the series with Cooperia curticei came out at 100%; in the series with Haemonchus contortus (20 ppm, after 5 days), 100%. The chromatographic logP in series [2] (setting [3]) amounted to 4. Moreover, the pest or weed control at 20 ppm in the series on Meloidogyne incognita is 100%.

For the compound `O=C(NCC(F)(F)c1ncc(-c2cccc(C(F)(F)F)c2)cc1Cl)c1ccccc1C(F)(F)F` [Example 10], the mortality at 20 ppm in the series on Cooperia curticei and in the series on Haemonchus contortus was 100% throughout. In addition, in series [1], the inhibition at 1 ppm was ≥ 60%. The compound further returned a chromatographic logP in series [2] (logP (HCOOH) [a]) of 4.17.

For `O=C(NCC(F)(F)c1ncc(-c2cc(F)cc(F)c2)cc1Cl)c1ccccc1C(F)(F)F` [Example 12], the mortality at 20 ppm with Cooperia curticei and in the series with Haemonchus contortus was 100% in each case. The inhibition at 1 ppm in series [1] was ≥ 60%. The inhibition at 10 ppm in series [1] is ≥ 60%. The chromatographic logP in series [2] (logP (HCOOH) [a]) amounted to 3.89.

In the case of `O=C(NCC(F)(F)c1ncc(-c2ccccc2F)cc1Cl)c1ccccc1C(F)(F)F` [Example 13], the mortality at 20 ppm with Cooperia curticei and in the series on Haemonchus contortus was 100% each time. For the same compound, the inhibition at 1 ppm in series [1] is ≥ 60%. Also, in series [2] (logP (HCOOH) [a]), the chromatographic logP is 3.73.

On to `O=C(NCC(F)(F)c1ncc(-c2ccccc2Cl)cc1Cl)c1ccccc1C(F)(F)F` [Example 16], for which the mortality at 20 ppm with Cooperia curticei was 100%. Further, in series [1], the inhibition at 1 ppm is ≥ 60% and the inhibition at 10 ppm was ≥ 60%. The compound also returned a chromatographic logP in series [2] (logP (HCOOH) [a]) of 4. In addition, in the series on Haemonchus contortus, the mortality at 20 ppm was 100%.

`CN(C)c1ccc(-c2cnc(C(F)(F)CNC(=O)c3ccccc3C(F)(F)F)c(Cl)c2)cc1` [Example 17]: the mortality at 20 ppm in the series on Cooperia curticei was determined as 100%; in the series on Haemonchus contortus (20 ppm, after 5 days) it was 100%. Besides, the chromatographic logP in series [2] (setting [3]) was determined as 4.09.

`O=C(NCC(F)(F)c1ncc(-c2ccc(F)cc2)cc1Cl)c1nccnc1C(F)(F)F` [Example 19]: the mortality at 20 ppm in the series on Cooperia curticei amounted to 100%; with Haemonchus contortus (20 ppm, after 5 days), 100%. Also, the chromatographic logP in series [2] (setting [3]) was 3.51. Also, the pest or weed control at 20 ppm in the series with Meloidogyne incognita was 90%.

Consider `CC(F)(CNC(=O)c1cccnc1C(F)(F)F)c1ncc(-c2ccc(Cl)cc2)cc1Cl` (stereo not shown) [Example 20], for which the chromatographic logP in series [2] (setting [3]) is 3.83.

For the compound `CC(F)(CNC(=O)c1ccccc1C(F)(F)F)c1ncc(-c2ccc(F)cc2)cc1Cl` (stereo not shown) [Example 21, N-{2-[3-chloro-5-(4-fluorophenyl)pyridin-2-yl]-2-fluoropropyl}-2-(trifluoromethyl) benzamide], the chromatographic logP in series [2] (setting [3]) turned out to be 3.96. In addition, the pest or weed control at 20 ppm in the series on Meloidogyne incognita is 100%.

For the compound `Cc1ccc(-c2cnc(C(C)(F)CNC(=O)c3cccnc3C(F)(F)F)c(Cl)c2)cc1` (stereo not shown) [Example 22], the chromatographic logP in series [2] (setting [3]) came out at 2.15.

As for `CC(F)(CNC(=O)c1ccccc1C(F)(F)F)c1ncc(-c2ccccc2)cc1Cl` (stereo not shown) [Example 23], the chromatographic logP in series [2] (setting [3]) worked out at 3.92.

For the compound `O=C(NCC(F)(F)c1ncc(-c2ccc3c(c2)OC(F)(F)O3)cc1Cl)c1ccccc1C(F)(F)F` [Example 25], the chromatographic logP in series [2] (setting [3]) was determined as 4.18.

As for `O=C(NCC(F)(F)c1ncc(-c2ccc(F)cc2)cc1Cl)c1cccnc1C(F)(F)F` [Example 26], the chromatographic logP in series [2] (setting [3]) worked out at 3.29. For the same compound, the pest or weed control at 20 ppm in the series with Meloidogyne incognita worked out at 100%.

As to `CC(F)(CNC(=O)c1cccnc1C(F)(F)F)c1ncc(-c2ccccc2)cc1Cl` (stereo not shown) [Example 28], the chromatographic logP in series [2] (setting [3]) is 3.38.

As to `Cc1ccc(-c2cnc(C(C)(F)CNC(=O)c3ccccc3C(F)(F)F)c(Cl)c2)cc1` (stereo not shown) [Example 29], the chromatographic logP in series [2] (setting [3]) came out at 4.35.

With `O=C(NCC(F)(F)c1ncc(-c2ccc(N3CCCC3)cc2)cc1Cl)c1ccccc1C(F)(F)F` [Example 30], the mortality at 20 ppm in the series on Cooperia curticei was 100%; with Haemonchus contortus (20 ppm, after 5 days), 90%. The chromatographic logP in series [2] (setting [3]) came out at 4.83.

As for `CN1CCN(c2ccc(-c3cnc(C(F)(F)CNC(=O)c4ccccc4C(F)(F)F)c(Cl)c3)cc2)CC1` [Example 31], the mortality at 20 ppm worked out at 100% in the series with Cooperia curticei and 100% in the series on Haemonchus contortus (20 ppm, after 5 days). Further, the chromatographic logP came to 1.78 in series [2] (setting [3]); 3.39 in series [2] (LC-UV, neutral range, 0.001 molar ammonium acetate solution in water and acetonitrile, read-out: logP [b]).

As for `O=C(NCC(F)(F)c1ncc(-c2ccc(N3CCOCC3)cc2)cc1Cl)c1ccccc1C(F)(F)F` [Example 32], the mortality at 20 ppm in the series on Cooperia curticei was determined as 100%. Besides, the chromatographic logP in series [2] (setting [3]) worked out at 3.59.

For `CS(=O)(=O)c1ccc(-c2cnc(C(F)(F)CNC(=O)c3ccccc3C(F)(F)F)c(Cl)c2)cc1` [Example 33], the chromatographic logP in series [2] (setting [3]) worked out at 2.65.

Turning to `O=C(NCC(F)(F)c1ncc(-c2ccc(F)c(C(F)(F)F)c2)cc1Cl)c1ccccc1C(F)(F)F` [Example 34], the chromatographic logP in series [2] (setting [3]) came to 4.19.

In the case of `CSc1ccc(-c2cnc(C(F)(F)CNC(=O)c3ccccc3C(F)(F)F)c(Cl)c2)cc1` [Example 35], the chromatographic logP in series [2] (setting [3]) was 4.1.

As for `CNc1ccc(-c2cnc(C(F)(F)CNC(=O)c3ccccc3C(F)(F)F)c(Cl)c2)cc1` [Example 36], the chromatographic logP in series [2] (setting [3]) is 3.39.

As for `N#Cc1ccc(-c2cnc(C(F)(F)CNC(=O)c3ccccc3C(F)(F)F)c(Cl)c2)cc1` [Example 37], in series [2] (setting [4]), the chromatographic logP came to 3.29.

Consider `CC(=O)Nc1ccc(-c2cnc(C(F)(F)CNC(=O)c3ccccc3C(F)(F)F)c(Cl)c2)cc1` [Example 38], for which, in series [2] (setting [3]), the chromatographic logP was 2.7.

Consider `O=C(NCC(F)(F)c1ncc(-c2ccc(SC(F)(F)F)cc2)cc1Cl)c1ccccc1C(F)(F)F` [Example 39], for which the chromatographic logP in series [2] (setting [3]) stood at 4.65.

On to `NCC(F)(F)c1ncc(-c2ccc(F)cc2)cc1Cl` [INT-1, 2-[3-chloro-5-(4-fluorophenyl)-2-pyridyl]-2,2-difluoro-ethanamine], for which the chromatographic logP in series [2] (setting [4]) worked out at 1.18; in series [2] (reversed-phase HPLC column, LC-UV, neutral range, 0.001 molar ammonium acetate solution in water and acetonitrile, read-out: logP [b]), 2.61.
